Measurements from patent publication US20250236589A1, “THERAPEUTIC PHENETHYLAMINE COMPOSITIONS AND METHODS OF USE” (Cybin IRL Limited, priority 2022, published 2025).
Entries after “also recorded” stand apart in the source; their conditions may differ. Like-named read-outs stand apart in the source and are kept apart here.

Assays:
[1] = In vitro liver microsome stability (RLM); format: in vitro ADME; details: rat, rat liver microsomes, 0.5 mg/mL microsomes, NADPH, read-out: RLM, t1/2
Method: (§1) In vitro stability was determined in Human (HLM), Rat (RLM), Mouse (MsLM), and dog (DLM) Liver Microsomes. All liver microsomes were purchased from a commercial supplier (e.g. XenoTech). The reaction mixture, minus NADPH, was prepared as described below. The test compound was added into the reaction mixture at a final concentration of 1 μM or co-dosed with their deuterated analog(s) at 1 μM each. The control compound, testosterone, was run simultaneously with the test compound in a separate reaction. The reaction mixture (without cofactor) was equilibrated in a shaking water bath at 37° C. for 5 minutes. The reaction was initiated by the addition of the cofactor, and the mixture was incubated in a shaking water bath at 37° C. Aliquots (150 μL) were withdrawn at 0, 5, 10, 20, 30, 60, and 120 minutes. Test compound and testosterone samples were immediately combined with 150 μL of ice-cold acetonitrile (ACN) containing 0.1% formic acid and internal standard to terminate the reaction. The samples were then mixed and centrifuged to precipitate proteins. All samples were assayed by LC-MS/MS using electrospray ionization. The peak area response ratio (PARR) of analyte to internal standard at each time point was compared to the PARR at time 0 to determine the percent remaining at each time point. Half-lives were calculated using GraphPad software, fitting to a single-phase exponential decay equation.

[2] = In vitro liver microsome stability (DLM); format: in vitro ADME; details: dog, dog liver microsomes, 0.5 mg/mL microsomes, NADPH, read-out: DLM, t1/2
Method: as §1, with “The peak area response ratio (PARR) of analyte to internal standard at each time point was compared to the PARR at time 0 to determine the percent remaining at each time point.” left out

human alpha2A receptor = human alpha2A receptor (Homo sapiens (Human), UniProt P08913); assay: alpha2A receptor binding ([3H]rauwolscine)
C57BL/6J mice [3] = assay: HTR time course after s.c. administration in C57BL/6J mice; format: in vivo, mouse
Method: 5-HT2 agonist activity and relative duration of action in vivo of test compounds were assessed using the HTR assay in male, adult C57BL/6J mice (Jackson Laboratories). Mice were housed in standard laboratory cages with ad libitum access to food and water, and were acclimated to the vivarium for at least one week prior to testing in a procedure room. On the day of testing, mice were acclimated to the procedure room in their home cages for ≥60 min before administration of test compounds. Mice were injected subcutaneously, placed immediately thereafter in a clear, polycarbonate box (46×20×20 cm), and HTRs were counted at 5, 10, 15, 40, 120, 160, 200, 240, 280, 320, 360, and 1440 min, using hand-held tally counters, by two trained observers who were blind to treatment.

C57BL/6J mice [4] = assay: HTR after oral or s.c. administration in C57BL/6J mice; format: in vivo, mouse
Method: In another experiment, C57BL/6J mice were moved to the behavior room 30 min prior to administration of the test compound. Test compound was administered either s.c. or p.o. at 1 to 10 mg/kg immediately prior to testing and HTR activity was assessed from 1-30 min and again from 120-150 by blind experienced testers in real-time.

[5] = PK profile in Wistar rats (plasma, brain, urine); format: in vivo, rat
Method: PK profile in Rats. To evaluate the full PK profile for I-1 in rats, plasma and brain pharmacokinetic and urinary excretion of I-1 in male Wistar rats after IV dose at 1 mg/kg and an oral (p.o.) dose at 5 mg/kg administration were determined. Plasma, brain, and urine samples were collected at specified time points after single dose administration of I-1 and quantification of I-1 in the samples was accomplished using LC-MS/MS. The pharmacokinetic parameters were determined as described above.

[6] = tested on: bdnf, homer1, Egr2, cFos mRNA (frontal cortex); assay: Brain markers of neuroplasticity, gene expression in frontal cortex; format: in vivo, mouse
Method: To evaluate the effects of I-1 on brain markers of neuroplasticity, male C57BL/6J mice were dosed as described in Table 10.
On Day 4, the animals were euthanized 2 hours post-dose. The left frontal cortex was dissected and stored in RNAlater.
Data were log transformed and analyzed by one-way analysis of variance. Each treatment was compared to vehicle by multiple comparisons. […] Moreover, increased homer1 expression, which is associated with the formation of postsynaptic scaffolds that cluster and colocalize NMDAR and mGluR was observed (FIG. 57C); and increased Egr2 expression, a […] that has been proposed to be a marker for psychedelic activation of 5-HT2A receptors (Gonzalez-Maeso et al., Transcriptome fingerprints distinguish hallucinogenic and nonhallucinogenic 5-hydroxytryptamine 2A receptor agonist effects in mouse somatosensory cortex. J Neurosci. 2003; 23(26), 8836-43) was observed (FIG. 57D). Upregulation of bdnf, a neurotrophin that regulates the survival and growth of neurons and influences synaptic efficiency and plasticity, was also observed (FIG. 57A).

5-HT2A receptor = 5-HT2A receptor (Homo sapiens (Human), UniProt P28223); assay: 5-HT2A radioligand competition binding ([3H]LSD or [3H]ketanserin)
[7] = male, Wistar, rat, po, brain, p.o. 5 mg/kg
[8] = male, Wistar, rat, po, plasma, p.o. 5 mg/kg
[9] = male, Wistar, rat, brain, IV 1 mg/kg
[10] = male, Wistar, rat, plasma, IV 1 mg/kg
[11] = 2 h after fourth dose of 0.3 mg/kg s.c. (group C) vs vehicle
[12] = 2 h after single 3 mg/kg s.c. (group B) vs vehicle

human alpha2A receptor, sequence (P08913 whole entry): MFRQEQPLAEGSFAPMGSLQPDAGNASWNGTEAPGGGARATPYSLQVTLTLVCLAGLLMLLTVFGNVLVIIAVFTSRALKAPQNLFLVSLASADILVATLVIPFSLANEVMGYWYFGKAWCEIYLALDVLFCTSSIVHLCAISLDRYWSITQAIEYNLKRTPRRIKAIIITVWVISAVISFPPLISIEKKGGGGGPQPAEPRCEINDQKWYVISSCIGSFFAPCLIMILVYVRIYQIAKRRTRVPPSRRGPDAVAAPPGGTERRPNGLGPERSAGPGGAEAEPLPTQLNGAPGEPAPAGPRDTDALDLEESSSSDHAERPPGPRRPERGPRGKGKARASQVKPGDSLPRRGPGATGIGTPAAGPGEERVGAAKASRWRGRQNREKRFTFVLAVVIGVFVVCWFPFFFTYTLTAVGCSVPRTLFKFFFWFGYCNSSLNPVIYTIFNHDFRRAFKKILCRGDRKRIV

COc1cc(SC(F)(F)F)c(OC)cc1CCN [Compound I-1, 2-(2,5-dimethoxy-4-((trifluoromethyl)thio)phenyl)ethan-1-amine]
half-life at 1 μM [1]: 0.92 h | half-life at 1 μM [2]: > 2 h | Ki (human alpha2A receptor): 66 nM | HTR, dose-response (C57BL/6J mice [3]; 0.1, 0.3, 1, 3 mg/kg s.c.): robust dose-dependent HTR | HTR duration versus DOI (C57BL/6J mice [3]; DOI 1 mg/kg s.c.): persisted longer | HTR after oral administration (C57BL/6J mice [4]; 1, 3, 10 mg/kg p.o.): elicited the HTR; also recorded: dose-dependent increase in HTRs | HTR duration versus DOI, oral (C57BL/6J mice [4]; p.o.): greater duration than DOI | mean total amount recovered in urine ([5]; IV 1 mg/kg, n=2): 718 ng | % F (AUCINF) ([5]; absolute oral bioavailability, p.o. 5 mg/kg): 19.1% | Cmax, brain concentration ([5]; brain, IV 1 mg/kg): 890 ng/g | T1/2 ([5]; brain, IV 1 mg/kg): 2.44 h | Cmax, brain concentration ([5]; brain, p.o. 5 mg/kg): 402 ng/g | T1/2 ([5]; brain, p.o. 5 mg/kg): 4.71 h | total systemic clearance relative to total hepatic blood flow ([5]; hepatic blood flow 3.3 L/hr/kg): approximately 6 fold | head twitching observed ([5]; immediately after IV 1 mg/kg, 1.5 hr after oral 5 mg/kg): mild to moderate-grade head twitching | Tmax ([5]; male, Wistar, rat, brain, iv, 1 mg/kg, IV 1 mg/kg): 0.5 h | Tmax ([5]; male, Wistar, rat, brain, po, 5 mg/kg, p.o. 5 mg/kg): 2 h | Tmax ([5]; male, Wistar, rat, plasma, iv, 1 mg/kg, IV 1 mg/kg): 0.083 h | AUC(0-inf) [5, 7]: 2880 ng·h/mL | AUC(0-t) [5, 7]: 1860 ng·h/mL | Cmax [5, 7]: 402 ng/mL | MRT last [5, 7]: 3.3 h | half-life [5, 7]: 4.71 h | AUC(0-inf) [5, 8]: 49.7 ng·h/mL | AUC(0-t) [5, 8]: 40.3 ng·h/mL | Cmax [5, 8]: 18.6 ng/mL | MRT last [5, 8]: 2.25 h | half-life [5, 8]: 3.53 h | CL renal ([5]; male, Wistar, rat, urine, IV 1 mg/kg, read-out: Renal clearance (converted)): 1.14 mL/min/kg | dose excreted ([5]; male, Wistar, rat, urine, IV 1 mg/kg, read-out: percentage recovery in urine): 0.07% | AUC(0-inf) [5, 9]: 3260 ng·h/mL | AUC(0-t) [5, 9]: 2910 ng·h/mL | Cmax [5, 9]: 890 ng/mL | MRT last [5, 9]: 2.54 h | half-life [5, 9]: 2.44 h | AUC(0-inf) [5, 10]: 50.7 ng·h/mL | AUC(0-t) [5, 10]: 42.2 ng·h/mL | Cmax [5, 10]: 54.1 ng/mL | MRT last [5, 10]: 0.62 h | clearance [5, 10]: 328 mL/min/kg | half-life [5, 10]: 0.78 h | C0 ([5]; male, Wistar, rat, plasma, IV 1 mg/kg, extrapolated): 67.2 ng/mL | Vd ([5]; male, Wistar, rat, plasma, IV 1 mg/kg, read-out: Vz): 22.2 L/kg | Cl ([5]; plasma, IV 1 mg/kg): 328 mL/min/kg | T1/2 ([5]; plasma, IV 1 mg/kg): 0.78 h | T1/2 ([5]; plasma, p.o. 5 mg/kg): 3.53 h | volume of distribution relative to total body water ([5]; total body water 0.7 L/kg): approximately 32 fold | Egr2 mRNA expression [6, 11]: Increased expression | homer1 mRNA expression [6, 11]: Increased expression | Egr2 (krox20) mRNA expression [6, 12]: Increased expression | bdnf mRNA expression [6, 12]: Increased expression | cFos mRNA expression [6, 12]: Increased expression | homer1 mRNA expression [6, 12]: Increased expression | Ki (5-HT2A receptor): 54 nM | affinity at 5-HT2A receptors (in words) (5-HT2A receptor): superior affinity | Ki (5-HT2A receptor; read-out: 5-HT2A, Ki, [3H]ketanserin, high-affinity active state): 2.5 nM
